From EP2140864A2 (H. Lundbeck A/S, priority 2001, dated 2002)
Like-named read-outs stand apart in the source and are kept apart here. Each block holds one compound with its values, some of them ahead of it.

How the values were obtained:
human GAL2 receptor = target: T1, human GAL2 receptor (Homo sapiens, UniProt O43603); test: Radioligand binding at cloned human GAL2 receptor
T1 construct: expressed in transfected cells
T1 sequence (O43603 1-387): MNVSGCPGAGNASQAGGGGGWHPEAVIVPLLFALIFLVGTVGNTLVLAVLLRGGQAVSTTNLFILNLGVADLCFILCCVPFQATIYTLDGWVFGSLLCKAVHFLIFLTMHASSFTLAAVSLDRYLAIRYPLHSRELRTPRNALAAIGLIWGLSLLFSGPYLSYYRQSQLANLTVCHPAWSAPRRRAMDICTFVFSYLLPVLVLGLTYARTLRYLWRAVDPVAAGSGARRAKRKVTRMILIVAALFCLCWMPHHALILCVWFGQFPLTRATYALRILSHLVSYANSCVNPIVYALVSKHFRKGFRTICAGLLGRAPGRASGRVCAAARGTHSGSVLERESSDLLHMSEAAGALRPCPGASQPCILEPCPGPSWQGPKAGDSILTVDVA
Summary of the method: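 Membranes from CHO cells stably expressing human GAL2 and LM(tk-) cells stably expressing human GAL1, resuspended in binding buffer (10 mM NaCl, 20 mM HEPES, pH 7.4). Binding data fitted by nonlinear regression.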

human 5HT1F = target: T2, human 5HT1F (Homo sapiens, UniProt P30939); test: Radioligand binding, 5HT1F receptor ([3H]-serotonin)
T2 construct: expressed in transfected cells
T2 sequence (P30939 1-366): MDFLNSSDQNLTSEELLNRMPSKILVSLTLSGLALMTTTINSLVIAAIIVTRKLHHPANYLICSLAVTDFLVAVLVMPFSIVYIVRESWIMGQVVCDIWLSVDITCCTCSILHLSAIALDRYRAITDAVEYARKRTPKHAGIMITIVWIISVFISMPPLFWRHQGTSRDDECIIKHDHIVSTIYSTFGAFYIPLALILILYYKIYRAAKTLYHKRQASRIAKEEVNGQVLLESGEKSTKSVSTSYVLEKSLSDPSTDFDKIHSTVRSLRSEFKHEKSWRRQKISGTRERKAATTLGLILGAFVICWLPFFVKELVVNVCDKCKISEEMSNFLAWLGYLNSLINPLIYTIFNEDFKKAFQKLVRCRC
Experimental: Human 5HT1B, 5HT1D, 5HT1E, 5HT1F, and 5HT7 Receptors: The cell lysates of LM(tk-) clonal cell line stably transfected with the genes encoding each of these 5HT receptor-subtypes were prepared as described above. Cell membranes were suspended in 50mM Tris-HCl buffer (pH 7.4 at 37°C) containing 10 mM MgCl2, 0.2 mM EDTA, 10 µM pargyline, and 0.1% ascorbate. […] Nonspecific binding was determined in the presence of 10 µM serotonin. The bound radioligand was separated by filtration through GF/B filters using a cell harvester.
(§1) Binding data were analyzed using nonlinear regression and statistical techniques available in the GraphPAD Prism package (San Diego, CA). Enzymatic assay data were derived from a standard curve of reference compound data.

5HT transporter = 5HT transporter (Rattus norvegicus, UniProt P31652); test: Binding at native 5HT transporter
Experimental: The binding properties of the compounds of the present invention were evaluated at one or more cloned receptors or native, tissue-derived transporters, using protocols described below.
The methods to determine binding affinity at native transporters are described in the following publications: 5HT transporter and NE transporter (Owens et al., 1997), and DA transporter (Javitch et al, 1984).
as §1

[1] = pyrimidines, read-out: Ki GalR2
[2] = Table 8; Ki h5HT1F divided by Ki hGAL3
[3] = Table 7; native transporter, head prints r (rat); read-out: r5HT Uptk Ki
[4] = Table 8; Ki r5HT Uptk divided by Ki hGAL3

Sequence of 5HT transporter (P31652 whole entry): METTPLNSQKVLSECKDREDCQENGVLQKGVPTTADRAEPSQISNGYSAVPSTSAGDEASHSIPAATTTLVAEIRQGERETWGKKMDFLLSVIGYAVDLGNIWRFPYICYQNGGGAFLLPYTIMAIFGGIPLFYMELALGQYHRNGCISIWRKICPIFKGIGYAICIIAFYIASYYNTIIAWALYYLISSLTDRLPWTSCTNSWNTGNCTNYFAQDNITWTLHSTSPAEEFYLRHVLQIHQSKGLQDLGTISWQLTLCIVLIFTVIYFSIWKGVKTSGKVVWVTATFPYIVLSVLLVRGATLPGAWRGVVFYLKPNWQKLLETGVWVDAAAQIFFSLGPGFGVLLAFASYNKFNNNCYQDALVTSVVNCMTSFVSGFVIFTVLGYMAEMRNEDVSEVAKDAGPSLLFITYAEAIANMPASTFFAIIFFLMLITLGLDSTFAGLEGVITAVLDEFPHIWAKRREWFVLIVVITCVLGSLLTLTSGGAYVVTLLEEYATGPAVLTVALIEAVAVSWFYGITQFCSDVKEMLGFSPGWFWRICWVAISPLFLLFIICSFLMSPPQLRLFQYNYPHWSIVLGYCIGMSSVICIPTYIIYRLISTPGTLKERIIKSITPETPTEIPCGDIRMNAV

Structure (SMILES): Cc1ccc(Nc2cc(N3CCCCC3)nc(N(C)CCc3c[nH]c4ccccc34)n2)cc1 [Example 11]
Ki (human GAL2 receptor; [1]): 0.681 µM
Ki (human 5HT1F; Table 7; read-out: h5HT1F Ki): 1.78 µM
selectivity ratio h5HT1F (human 5HT1F; [2]): 20
Ki (5HT transporter; [3]): 1.59 µM
selectivity ratio r5HT Uptk (5HT transporter; [4]): 18

Structure (SMILES): O=C1C(=Nc2ccc(Br)cc2)c2ccccc2N1c1ccccc1 [Example 98, 3-[(4-BROMOPHENYL)IMINO]-1-PHENYL-1,3-DIHYDRO-2H-INDOL-2-ONE]
Ki (human GAL2 receptor; indolones, read-out: Ki GalR2): > 10 µM
Ki (human 5HT1F; Table 7; read-out: h5HT1F Ki): 3.36 µM
selectivity ratio h5HT1F (human 5HT1F; [2]): >30
Ki (5HT transporter; [3]): 36.3 µM
selectivity ratio r5HT Uptk (5HT transporter; [4]): >100

Structure (SMILES): O=C1C(=Nc2ccc(C(F)(F)F)cc2)c2ccccc2N1c1ccccc1 [Example 95, 1-PHENYL-3-[[4-(TRIFLUOROMETHYL)PHENYL]IMINO]-1,3-DIHYDRO-2H-INDOL-2-ONE]
Ki (human GAL2 receptor; indolones, read-out: Ki GalR2): > 10 µM
Ki (human 5HT1F; Table 7; read-out: h5HT1F Ki): 4.45 µM
selectivity ratio h5HT1F (human 5HT1F; [2]): >100
Ki (5HT transporter; [3]): > 50 µM
selectivity ratio r5HT Uptk (5HT transporter; [4]): >100

Structure (SMILES): O=C1C(=Nc2ccc(Cl)cc2)c2ccccc2N1c1ccccc1 [Example 97, 3-[(4-CHLOROPHENYL)IMINO]-1-PHENYL-1,3-DIHYDRO-2H-INDOL-2-ONE]
Ki (human GAL2 receptor; indolones, read-out: Ki GalR2): > 10 µM
Ki (human 5HT1F; Table 7; read-out: h5HT1F Ki): 4.16 µM
selectivity ratio h5HT1F (human 5HT1F; [2]): >30
Ki (5HT transporter; [3]): 36.3 µM
selectivity ratio r5HT Uptk (5HT transporter; [4]): >100

Ki (human GAL2 receptor; indolones, read-out: Ki GalR2): > 10 µM
Structure (SMILES): O=C1C(=Nc2cc(Cl)cc(Cl)c2)c2ccccc2N1c1ccccc1 [Example 103, 3-[(3,5-DICHLOROPHENYL)IMINO]-1-PHENYL-1,3-DIHYDRO-2H-INDOL-2-ONE]

Structure (SMILES): O=C1C(=Nc2cccc(C(F)(F)F)c2)c2ccccc2N1c1ccccc1 [Example 92, 1-PHENYL-3- [[3-(TRIFLUOROMETHYL)PHENYL]IMINO]-1,3-DIHYDRO-2H-INDOL-2-ONE]
selectivity ratio h5HT1F (human 5HT1F; [2]): >100
selectivity ratio r5HT Uptk (5HT transporter; [4]): >100

Structure (SMILES): Cc1ccc(Nc2cc(N3CCCCC3)nc(N3CCN(c4ncccc4C(F)(F)F)CC3)n2)cc1 [Example 34]
Ki (human GAL2 receptor; [1]): 0.168 µM
Ki (human 5HT1F; Table 7; read-out: h5HT1F Ki): 4.8 µM
selectivity ratio h5HT1F (human 5HT1F; [2]): >100
Ki (5HT transporter; [3]): 37.5 µM
selectivity ratio r5HT Uptk (5HT transporter; [4]): >100

Structure (SMILES): CN(C)c1cc(Nc2ccc(Cl)c(Cl)c2)nc(Nc2ccccc2)n1 [Example 60]
Ki (human GAL2 receptor; [1]): > 5 µM
Ki (human 5HT1F; Table 7; read-out: h5HT1F Ki): 2.12 µM
selectivity ratio h5HT1F (human 5HT1F; [2]): 25
Ki (5HT transporter; [3]): 25.3 µM
selectivity ratio r5HT Uptk (5HT transporter; [4]): >100

Structure (SMILES): COC[C@@H]1[C@@H](c2ccccc2)OCCN1c1nc(Nc2ccc(C)cc2)cc(N2CCCCC2)n1 [Example 49]
Ki (human GAL2 receptor; read-out: Ki GalR2, pyrimidines): 3.27 µM
selectivity ratio h5HT1F (human 5HT1F; [2]): >30
Ki (human 5HT1F; read-out: h5HT1F Ki; Table 7): 8.89 µM
selectivity ratio r5HT Uptk (5HT transporter; [4]): >100
Ki (5HT transporter; read-out: r5HT Uptk Ki; Table 7; native transporter, head prints r (rat)): 40.7 µM

Structure (SMILES): O=C1C(=Nc2cccc(Cl)c2)c2ccccc2N1c1ccccc1 [Example 94, 3-[(3-CHLOROPHENYL)IMINO]-1-PHENYL-1,3-DIHYDRO-2H-INDOL-2-ONE]
Ki (human GAL2 receptor; indolones, read-out: Ki GalR2): > 10 µM
Ki (human 5HT1F; Table 7; read-out: h5HT1F Ki): 5.68 µM
selectivity ratio h5HT1F (human 5HT1F; [2]): >100
Ki (5HT transporter; [3]): 13 µM
selectivity ratio r5HT Uptk (5HT transporter; [4]): >100

Structure (SMILES): COc1cccc(Nc2cc(N3CCCCC3)nc(N(C)CCc3c[nH]c4ccccc34)n2)c1 [Example 17]
Ki (human GAL2 receptor; [1]): 2.09 µM
Ki (human 5HT1F; Table 7; read-out: h5HT1F Ki): 10.3 µM
selectivity ratio h5HT1F (human 5HT1F; [2]): >100
Ki (5HT transporter; [3]): 0.719 µM
selectivity ratio r5HT Uptk (5HT transporter; [4]): 8

Structure (SMILES): Cc1ccc(Nc2cc(N3CCCCC3)nc(N(C)CCc3ccccc3)n2)cc1 [Example 22]
Ki (human GAL2 receptor; [1]): 0.176 µM
Ki (human 5HT1F; Table 7; read-out: h5HT1F Ki): 5.77 µM
selectivity ratio h5HT1F (human 5HT1F; [2]): >100
Ki (5HT transporter; [3]): 8.48 µM
selectivity ratio r5HT Uptk (5HT transporter; [4]): >100

Structure (SMILES): CN(CCc1c[nH]c2ccccc12)c1nc(Nc2ccc(F)c(F)c2)cc(N2CCCCC2)n1 [Example 15]
Ki (human GAL2 receptor; [1]): 0.624 µM
Ki (human 5HT1F; Table 7; read-out: h5HT1F Ki): 4.19 µM
selectivity ratio h5HT1F (human 5HT1F; [2]): >30
Ki (5HT transporter; [3]): 1.74 µM
selectivity ratio r5HT Uptk (5HT transporter; [4]): 24

Structure (SMILES): Cc1ccc(Nc2cc(N(C)C)nc(N(C)CCc3c[nH]c4ccccc34)n2)cc1 [Example 77]
Ki (human GAL2 receptor; [1]): 0.709 µM
Ki (human 5HT1F; Table 7; read-out: h5HT1F Ki): 3.24 µM
selectivity ratio h5HT1F (human 5HT1F; [2]): >30
Ki (5HT transporter; [3]): 0.821 µM
selectivity ratio r5HT Uptk (5HT transporter; [4]): 10
